Reference: ChEMBL document CHEMBL3526082, “Identification of metabolites of ganoderic acid D by ultra-performance liquid chromatography/quadrupole time-of-flight mass spectrometry” (Drug Metab Dispos, 2012)
One block for each compound: values may come before it.

How the values were obtained:
[1] = Drug excretion in Sprague-Dawley rat bile assessed as (6R)-6-((5R,7S,10S,13R,14R,17R)-2,7-dihydroxy-4-(hydroxymethyl)-4,10,13,14-tetramethyl-3,11,15-trioxo-2,3,4,5,6,7,10,11,12,13,14,15,16,17-tetradecahydro-1H-cyclopenta[a]phenanthren-17-yl)-2-hydroxy-2-methyl-4-oxoheptanoic acid level at 10 mg/kg, po after 12 hrs by UPLC/Q-TOF analysis; type: ADME, organism-based; set-up: dose 10 mg/kg, route oral; conditions: in vivo
[2] = Drug excretion in Sprague-Dawley rat bile assessed as 7(S) -hydroxy-11,15,23-trioxo-3-sulfooxylanost-8-en-26-oic acid level at 10 mg/kg, po after 12 hrs by UPLC/Q-TOF analysis; type: ADME, organism-based; set-up: dose 10 mg/kg, route oral; conditions: in vivo
Rattus norvegicus = assay: Drug metabolism in Sprague-Dawley rat plasma assessed as 3,7(S)-dihydroxy-11,15,23-trioxolanost-8-en-26-oic acid level at 10 mg/kg, po by UPLC/Q-TOF analysis; type: ADME, organism-based; set-up: dose 10 mg/kg, route oral; conditions: in vivo
Plasma [3] = assay: Drug level in Sprague-Dawley rat plasma at 10 mg/kg, po by UPLC/Q-TOF analysis; type: ADME, organism-based; set-up: dose 10 mg/kg, route oral; conditions: in vivo
Plasma [4] = assay: Drug level in Sprague-Dawley rat plasma treated with ganoderic acid D at 10 mg/kg, po by UPLC/Q-TOF analysis; type: ADME, organism-based; set-up: dose 10 mg/kg, route oral; conditions: in vivo
[5] = Drug excretion in Sprague-Dawley rat urine assessed as parent compound at 10 mg/kg, po by UPLC/Q-TOF analysis; type: ADME, organism-based; set-up: dose 10 mg/kg, route oral; conditions: in vivo
[6] = Drug excretion in Sprague-Dawley rat urine assessed as metabolite level at 10 mg/kg, po by UPLC/Q-TOF analysis; type: ADME, organism-based; set-up: dose 10 mg/kg, route oral; conditions: in vivo
Liver microsome [7] = assay: Drug metabolism in Sprague-Dawley rat liver microsomes assessed as 3,7(S)-dihydroxy-11,15,23-trioxolanost-8-en-26-oic acid formation at 100 uM after 1 hr by UPLC/Q-TOF analysis; type: ADME
Liver microsome [8] = assay: Drug metabolism in Sprague-Dawley rat liver microsomes assessed as (6R)-6-((5R,7S,10S,13R,14R,17R)-2,7-dihydroxy-4,4,10,13,14-pentamethyl-3,11,15-trioxo-2,3,4,5,6,7,10,11,12,13,14,15,16,17-tetradecahydro-1H-cyclopenta[a]phenanthren-17-yl)-2-methyl-4-oxoheptanoic acid formation at 100 uM after 1 hr by UPLC/Q-TOF analysis; type: ADME
Liver microsome [9] = assay: Drug metabolism in Sprague-Dawley rat liver microsomes assessed as (6R)-6-((5R,7S,10S,13R,14R,17R)-2,7-dihydroxy-4-(hydroxymethyl)-4,10,13,14-tetramethyl-3,11,15-trioxo-2,3,4,5,6,7,10,11,12,13,14,15,16,17-tetradecahydro-1H-cyclopenta[a]phenanthren-17-yl)-2-methyl-4-oxoheptanoic acid formation at 100 uM after 1 hr by UPLC/Q-TOF analysis; type: ADME
HeLa = assay: Antiproliferative activity against human HeLa cells assessed as inhibition of cell proliferation after 48 hrs; type: functional, cell-based
[10] = Retention time of the compound in Sprague-Dawley rat bile by UPLC/Q-TOF analysis; type: ADME
[11] = Drug excretion in Sprague-Dawley rat bile assessed as 3,7(S)-dihydroxy-11,15,23-trioxolanost-8-en-26-oic acid level at 10 mg/kg, po after 12 hrs by UPLC/Q-TOF analysis; type: ADME, organism-based; set-up: dose 10 mg/kg, route oral; conditions: in vivo
[12] = Drug excretion in Sprague-Dawley rat bile assessed as 3,7,11,15,23-pentaoxolanost-8-en-26-oic acid level at 10 mg/kg, po after 12 hrs by UPLC/Q-TOF analysis; type: ADME, organism-based; set-up: dose 10 mg/kg, route oral; conditions: in vivo
[13] = Drug excretion in Sprague-Dawley rat bile assessed as (6R)-6-((5R,7S,10S,13R,14R)-3,7-dihydroxy-4,4,10,13,14-pentamethyl-11,15-dioxo-2,3,4,5,6,7,10,11,12,13,14,15-dodecahydro-1H-cyclopenta[a]phenanthren-17-yl)-2-methyl-4-oxoheptanoic acid level at 10 mg/kg, po after 12 hrs by UPLC/Q-TOF analysis; type: ADME, organism-based; set-up: dose 10 mg/kg, route oral; conditions: in vivo
[14] = Drug excretion in Sprague-Dawley rat bile assessed as (6R)-2-hydroxy-6-((5R,7S,10S,13R,14R,17R)-7-hydroxy-4,4,10,13,14-pentamethyl-3,11,15-trioxo-2,3,4,5,6,7,10,11,12,13,14,15,16,17-tetradecahydro-1H-cyclopenta[a]phenanthren-17-yl)-2-methyl-4-oxoheptanoic acid level at 10 mg/kg, po after 12 hrs by UPLC/Q-TOF analysis; type: ADME, organism-based; set-up: dose 10 mg/kg, route oral; conditions: in vivo
[15] = Drug excretion in Sprague-Dawley rat bile assessed as (6R)-6-((5R,7S,10S,13R,14R,17R)-7-hydroxy-4,4,10,13,14-pentamethyl-3,11,15-trioxo-2,3,4,5,6,7,10,11,12,13,14,15,16,17-tetradecahydro-1H-cyclopenta[a]phenanthren-17-yl)-2-(hydroxymethyl)-4-oxoheptanoic acid level at 10 mg/kg, po after 12 hrs by UPLC/Q-TOF analysis; type: ADME, organism-based; set-up: dose 10 mg/kg, route oral; conditions: in vivo
[16] = Drug excretion in Sprague-Dawley rat bile assessed as (6R)-6-((5R,7S,10S,13R,14R,17R)-2,7-dihydroxy-4,4,10,13,14-pentamethyl-3,11,15-trioxo-2,3,4,5,6,7,10,11,12,13,14,15,16,17-tetradecahydro-1H-cyclopenta[a]phenanthren-17-yl)-2-methyl-4-oxoheptanoic acid level at 10 mg/kg, po after 12 hrs by UPLC/Q-TOF analysis; type: ADME, organism-based; set-up: dose 10 mg/kg, route oral; conditions: in vivo
[17] = Drug excretion in Sprague-Dawley rat bile assessed as (6R)-6-((5R,7S,10S,13R,14R)-7-hydroxy-4-(hydroxymethyl)-4,10,13,14-tetramethyl-3,11,15-trioxo-2,3,4,5,6,7,10,11,12,13,14,15-dodecahydro-1H-cyclopenta[a]phenanthren-17-yl)-2-methyl-4-oxoheptanoic acid level at 10 mg/kg, po after 12 hrs by UPLC/Q-TOF analysis; type: ADME, organism-based; set-up: dose 10 mg/kg, route oral; conditions: in vivo
[18] = Drug excretion in Sprague-Dawley rat bile assessed as (6R)-6-((5R,7S,10S,13R,14R,17R)-2,7-dihydroxy-4,4,10,13,14-pentamethyl-3,11,15-trioxo-2,3,4,5,6,7,10,11,12,13,14,15,16,17-tetradecahydro-1H-cyclopenta[a]phenanthren-17-yl)-2-hydroxy-2-methyl-4-oxoheptanoic acid level at 10 mg/kg, po after 12 hrs by UPLC/Q-TOF analysis; type: ADME, organism-based; set-up: dose 10 mg/kg, route oral; conditions: in vivo
[19] = Drug excretion in Sprague-Dawley rat bile assessed as (6R)-6-((5R,7S,10S,13R,14R,17R)-2,7-dihydroxy-4,4,10,13,14-pentamethyl-3,11,15-trioxo-2,3,4,5,6,7,10,11,12,13,14,15,16,17-tetradecahydro-1H-cyclopenta[a]phenanthren-17-yl)-2-(hydroxymethyl)-4-oxoheptanoic acid level at 10 mg/kg, po after 12 hrs by UPLC/Q-TOF analysis; type: ADME, organism-based; set-up: dose 10 mg/kg, route oral; conditions: in vivo
[20] = Drug excretion in Sprague-Dawley rat bile assessed as (6R)-2-hydroxy-6-((5R,7S,10S,13R,14R,17R)-7-hydroxy-4-(hydroxymethyl)-4,10,13,14-tetramethyl-3,11,15-trioxo-2,3,4,5,6,7,10,11,12,13,14,15,16,17-tetradecahydro-1H-cyclopenta[a]phenanthren-17-yl)-2-methyl-4-oxoheptanoic acid level at 10 mg/kg, po after 12 hrs by UPLC/Q-TOF analysis; type: ADME, organism-based; set-up: dose 10 mg/kg, route oral; conditions: in vivo
[21] = Drug excretion in Sprague-Dawley rat bile assessed as (6R)-6-((5R,7S,10S,13R,14R,17R)-2,7-dihydroxy-4-(hydroxymethyl)-4,10,13,14-tetramethyl-3,11,15-trioxo-2,3,4,5,6,7,10,11,12,13,14,15,16,17-tetradecahydro-1H-cyclopenta[a]phenanthren-17-yl)-2-methyl-4-oxoheptanoic acid level at 10 mg/kg, po after 12 hrs by UPLC/Q-TOF analysis; type: ADME, organism-based; set-up: dose 10 mg/kg, route oral; conditions: in vivo
[22] = Drug excretion in Sprague-Dawley rat bile treated with ganoderic acid D at 10 mg/kg, po after 12 hrs by UPLC/Q-TOF analysis; type: ADME, organism-based; set-up: dose 10 mg/kg, route oral; conditions: in vivo
Liver microsome [23] = assay: Drug level in Sprague-Dawley rat liver microsomes assessed as compound formation treated with ganoderic acid D at 100 uM after 1 hr by UPLC/Q-TOF analysis; type: ADME

Compound: CC(CC(=O)CC(C)[C@H]1CC(=O)[C@@]2(C)C3=C(C(=O)C[C@]12C)[C@@]1(C)CCC(=O)C(C)(C)[C@@H]1C[C@@H]3O)C(=O)O (some centres not stated)
- Drug excretion [1]: metabolite_detected
- Drug excretion [2]: metabolite_detected
- Drug metabolism (Rattus norvegicus): metabolite_detected
- Drug uptake (Plasma [3]): Active
- Drug metabolism (Plasma [4]): metabolite_detected
- Drug excretion [5]: metabolite_not_detected
- Drug excretion [6]: metabolite_not_detected
- Drug metabolism (Liver microsome [7]): metabolite_detected
- Drug metabolism (Liver microsome [8]): metabolite_detected
- Drug metabolism (Liver microsome [9]): metabolite_detected
- IC50 (HeLa): 17.3 µM
- Retention_time [10]: 11.3 min
- Drug excretion [11]: metabolite_detected
- Drug excretion [12]: metabolite_detected
- Drug excretion [13]: metabolite_detected
- Drug excretion [14]: metabolite_detected
- Drug excretion [15]: metabolite_detected
- Drug excretion [16]: metabolite_detected
- Drug excretion [17]: metabolite_detected
- Drug excretion [18]: metabolite_detected
- Drug excretion [19]: metabolite_detected
- Drug excretion [20]: metabolite_detected
- Drug excretion [21]: metabolite_detected

Compound: CC(CC(=O)CC(C)[C@H]1CC(=O)[C@@]2(C)C3=C(C(=O)C[C@]12C)[C@@]1(C)CCC(O)C(C)(C)[C@@H]1C[C@@H]3O)C(=O)O (some centres not stated)
- Drug excretion [22]: metabolite_detected
- Drug metabolism (Liver microsome [23]): metabolite_detected
- Retention_time [10]: 9.9 min

Compound: CC(CC(=O)CC(C)[C@H]1CC(=O)[C@@]2(C)C3=C(C(=O)C[C@]12C)[C@@]1(C)CCC(=O)C(C)(C)[C@@H]1CC3=O)C(=O)O (some centres not stated)
- Drug excretion [22]: metabolite_detected
- Retention_time [10]: 11.5 min

Compound: CC(CC(=O)CC(C)C1=CC(=O)[C@@]2(C)C3=C(C(=O)C[C@]12C)[C@@]1(C)CCC(=O)C(C)(C)[C@@H]1C[C@@H]3O)C(=O)O (some centres not stated)
- Drug excretion [22]: metabolite_detected
- Retention_time [10]: 11.9 min

Compound: CC(CC(=O)CC(C)[C@H]1CC(=O)[C@@]2(C)C3=C(C(=O)C[C@]12C)[C@@]1(C)CCC(=O)C(C)(CO)[C@@H]1C[C@@H]3O)C(=O)O (some centres not stated)
- Drug excretion [22]: metabolite_detected
- Retention_time [10]: 9.2 min

Compound: CC(CC(=O)CC(C)(O)C(=O)O)[C@H]1CC(=O)[C@@]2(C)C3=C(C(=O)C[C@]12C)[C@@]1(C)CC(O)C(=O)C(C)(C)[C@@H]1C[C@@H]3O (some centres not stated)
- Drug excretion [22]: metabolite_detected
- Retention_time [10]: 8.2 min

Compound: CC(CC(=O)CC(C)[C@H]1CC(=O)[C@@]2(C)C3=C(C(=O)C[C@]12C)[C@@]1(C)CC(O)C(=O)C(C)(CO)[C@@H]1C[C@@H]3O)C(=O)O (some centres not stated)
- Drug excretion [22]: metabolite_detected
- Drug metabolism (Liver microsome [23]): metabolite_detected
- Retention_time [10]: 7.3 min

Compound: CC(CC(=O)CC(C)(O)C(=O)O)[C@H]1CC(=O)[C@@]2(C)C3=C(C(=O)C[C@]12C)[C@@]1(C)CC(O)C(=O)C(C)(CO)[C@@H]1C[C@@H]3O (some centres not stated)
- Drug excretion [22]: metabolite_detected
- Retention_time [10]: 5.9 min

Compound: CC(CC(=O)CC(C)[C@H]1CC(=O)[C@@]2(C)C3=C(C(=O)C[C@]12C)[C@@]1(C)CCC(OS(=O)(=O)O)C(C)(C)[C@@H]1C[C@@H]3O)C(=O)O (some centres not stated)
- Drug excretion [22]: metabolite_detected
- Retention_time [10]: 8.5 min

Next, values leading:

- Drug excretion [22]: metabolite_detected
- Retention_time [10]: 10 min
Compound: CC(CC(=O)CC(C)(O)C(=O)O)[C@H]1CC(=O)[C@@]2(C)C3=C(C(=O)C[C@]12C)[C@@]1(C)CCC(=O)C(C)(C)[C@@H]1C[C@@H]3O (some centres not stated)

- Drug excretion [22]: metabolite_detected
- Retention_time [10]: 9.8 min
Compound: CC(CC(=O)CC(CO)C(=O)O)[C@H]1CC(=O)[C@@]2(C)C3=C(C(=O)C[C@]12C)[C@@]1(C)CCC(=O)C(C)(C)[C@@H]1C[C@@H]3O (some centres not stated)

- Drug excretion [22]: metabolite_detected
- Drug metabolism (Liver microsome [23]): metabolite_detected
- Retention_time [10]: 9.5 min
Compound: CC(CC(=O)CC(C)[C@H]1CC(=O)[C@@]2(C)C3=C(C(=O)C[C@]12C)[C@@]1(C)CC(O)C(=O)C(C)(C)[C@@H]1C[C@@H]3O)C(=O)O (some centres not stated)

- Drug excretion [22]: metabolite_detected
- Retention_time [10]: 8 min
Compound: CC(CC(=O)CC(CO)C(=O)O)[C@H]1CC(=O)[C@@]2(C)C3=C(C(=O)C[C@]12C)[C@@]1(C)CC(O)C(=O)C(C)(C)[C@@H]1C[C@@H]3O (some centres not stated)

- Drug excretion [22]: metabolite_detected
- Retention_time [10]: 7.5 min
Compound: CC(CC(=O)CC(C)(O)C(=O)O)[C@H]1CC(=O)[C@@]2(C)C3=C(C(=O)C[C@]12C)[C@@]1(C)CCC(=O)C(C)(CO)[C@@H]1C[C@@H]3O (some centres not stated)
